Measurements taken from ChEMBL document CHEMBL1129339, “Mapping the aspartic acid binding site of Escherichia coli asparagine synthetase B using substrate analogs” (J Med Chem, 1996).

Legend:
[1] = test system: Asparagine synthetase B (Escherichia coli); experiment: Competitive Inhibition constant of Asparagine synthetase of Glutamine-Dependent Synthetase Activity using aspartate as substrate
[2] = test system: Asparagine synthetase B (Escherichia coli); experiment: Non competitive Inhibition constant of Asparagine synthetase of Glutamine-Dependent Synthetase Activity using ATP as substrate
[3] = test system: Asparagine synthetase B (Escherichia coli); experiment: Non competitive Inhibition constant of Asparagine synthetase of Glutamine-Dependent Synthetase Activity using glutamine as substrate
[4] = test system: Asparagine synthetase B (Escherichia coli); experiment: Uncompetitive Inhibition constant of Asparagine synthetase of Glutamine-Dependent Synthetase Activity using glutamine as substrate
[5] = test system: Asparagine synthetase B (Escherichia coli); experiment: Noncompetitive Inhibition constant of Asparagine synthetase of Glutamine-Dependent Synthetase Activity using ATP as substrate
[6] = test system: Asparagine synthetase B (Escherichia coli); experiment: Noncompetitive Inhibition constant of Asparagine synthetase of Glutamine-Dependent Synthetase Activity using glutamine as substrate
[7] = test system: Asparagine synthetase B (Escherichia coli); experiment: Noncompetitive Inhibition constant of Asparagine synthetase of Glutamine-Dependent Synthetase Activity using aspartate as substrate

Kis [1] [mM] | Kii [2] [mM] | Kis [2] [mM] | Kii [3] [mM] | Kis [3] [mM] | Kii [4] [mM] | Kii [5] [mM] | Kis [5] [mM] | Kii [6] [mM] | Kis [6] [mM] | Kii [7] [mM] | Kis [7] [mM] | SMILES
0.25 | 3.28 | 0.45 | 1.71 | 1.62 |  |  |  |  |  |  |  | C[C@@H](C(=O)O)[C@H](N)C(=O)O (single isomer, unassigned)
2.65 |  |  |  |  | 2.57 | 4.8 | 2.65 |  |  |  |  | O=C(O)[C@H]1NCC[C@H]1C(=O)O
 |  |  |  |  |  | 15 | 8 | 16.5 | 93 | > 50 | 18 | C[C@H](C(=O)O)[C@H](N)C(=O)O
